From patent US11406721B2, “Compositions and methods for imaging cell populations” (The Regents of the University of California, priority 2016, dated 2022)

Experiments:
Format in all cases: physicochemical
[1] = Kinetic measurements of metal uptake into emulsion (UV-Vis); details: emulsion from example 4
Description: FIG. 15. Time course of metalation of FETRIS nanoemulsion with Fe^3+. Shown is the metalation of emulsion B (70 μM pAn-FDK and 10 μM Fe^3+, 8 mM HCl, pH 2.1). A single exponential fit yields kobs=0.69±0.10 min^−1
Strong absorbance of aromatic diketone and its complexes permits facile kinetic investigation of metalation rates. In atypical measurement, emulsion from example 4 was diluted to 70 uM diketone (excess ligand, modeling radiolabeling conditions) into a solution of chosen pH and treated with 10 uM metal cations of relevance to medical imaging, including Fe^3+ (MRI), Cu^2+ (PET), Ga^3+ (PET, SPECT), Sc^3+ (PET), and In^3+ (SPECT). In all cases, UV-Vis spectral changes indicative of metal uptake into the fluorous phase were detected, proportional in magnitude to the amount of metal. For some metals, kinetic analysis was performed. The reaction time course fit well to a pseudo-first-order process with rate constant kobs (Table 4).

[2] = 19F relaxometry of organic solutions containing paramagnetic dpm complexes; details: 50 mM complexes in 1:1 v/v PhCF3:acetone-d6, 9.4 T
Description: FIG. 10. ^19F relaxometry of organic solutions containing paramagnetic complexes. Relaxation rates of the CF3 group were measured in the presence of 50 mM tris-(dipivaloylmethanato) complexes Fe(dpm)3 (left) and Gd(dpm)3 (right) in 1:1 v/v PhCF3:acetone-d6 at 9.4 T in a sealed 5 mm NMR tubes. […] Solid lines are guide for the eye. While monomeric Fe(dpm)3 was highly soluble in PhCF3 alone, polymeric Gd(dpm)3 dissolved only in the presence of Lewis basic solvent acetone-d6. […] The observed ratio between R1(Gd) and R1(Fe) was 1.72-1.77, consistent with the expected 1.8-fold difference due to the S(S+1) term in Eq. S, curtailed by a slight increase in the distance of minimal approach due to the larger size of Gd.
To highlight the critical effect of viscosity on relaxation rates, we measured PRE caused by different metal ions in non-viscous organic solutions containing trifluorotoluene (PhCF3) and iron or gadolinium chelates of dipivaloylmethane, Fe(dpm)3 and Gd(dpm)3. Under these conditions, gadolinium provided higher R1 than iron, as expected from the greater spin of Gd^3+. […] In contrast, the divergent temperature dependence of R1 and R2 in FETRIS nanoemulsion (FIG. 3D) is indicative of slow molecular motion in the fluorous phase.

[3] = Small fluorinated diketones: relaxation enhancement and stability under EDTA competition and cell labeling; details: metalated small fluorinated diketones
Description: It may be necessary for sufficient stability to use fluorinated diketones with heavily fluorinated substituents that are well-miscible with other fluorinated agents known in the art to be useful for ^19F MRI.

[4] = 19F relaxometry of PFPE nanoemulsion doped with H-fod and metal chloride; details: 9.4 T
Description: FIG. 1. Comparison of iron and gadolinium diketonates (H-fod) as ^19F relaxation agents for PFPE. […] R1 and R2 values are reported for the main PFPE peak at −91.4 ppm.
FIG. 11. ^19F relaxometry of PFPE with metalated small diketones. PFPE nanoemulsion was doped in the fluorous phase with small fluorinated diketones H-fod and H-hfp. […] The left panels display broad ^19F NMR signals of CF2 groups of H-fod and H-hfp observed in the absence of metals indicating poor solubility of the ligands in the fluorous phase. […] The right panel show the time course of metalation of PFPE+H-fod nanoemulsion measured by ^19F relaxometry. R1 and R2 were measured for main PFPE peak at −91 ppm at different time points. The solid lines are guides for the eye. The appearance of orange color of Fe(fod)3 correlated with an increase in relaxation rates. Metalation of PFPE emulsions doped with H-fod with Fe^3+ was several orders of magnitude slower than metalation of emulsions containing pAn-FDK (FIG. 15).
Initially, the results of the PRE modeling [Example 2 and FIG. 9] using small molecules were tested. Fluorinated β-diketone H-fod (FIG. 1) was chosen as starting point. […] Addition of 0.7 mM FeCl3 led to the slow formation of orange-colored Fe(fod)3 and a commensurate increase in R1 from 2.3 to 27.0 s^−1 and in R2 from 4.0 to 85.6 s^−1 (at 9.4 T) of the major PFPE resonance (−91.4 ppm) by 24 hours (FIG. 11). With GdCl3, lower R1 (12.8 s^−1) and higher R2 (285 s^−1) values were obtained.

[5] = final [M^3+] 10 uM, [ligand] 70 uM, pH 2.1 (8 mM HCl)

Row | Compound | enhancing relaxation [3] | stability under the conditions of EDTA competition and cell labeling [3] | also measured
1 | [Cl][Fe]([Cl])[Cl] [FeCl3] |  |  | kobs ([1]; final [M^3+] 5 uM, [ligand] 70 uM, pH 2.1 (8 mM HCl)): 0.79 min⁻¹; kobs [1, 5]: 0.70 min⁻¹
2 | [Cl][Ga]([Cl])[Cl] [GaCl3] |  |  | kobs [1, 5]: 0.043 min⁻¹
3 | CC(C)(C)C(=O)C=C(O)C(C)(C)C.CC(C)(C)C(=O)C=C(O)C(C)(C)C.CC(C)(C)C(=O)C=C(O)C(C)(C)C.[Gd] [Gd(dpm)3] |  |  | ratio between R1(Gd) and R1(Fe) [2]: 1.72-1.77
4 | O=C(/C=C(\O)c1ccccc1)C(F)F [H-bda] | highly effective | not stable enough | 
5 | O=C(CC(=O)C(F)(F)F)c1ccccc1 [H-bta] | highly effective | not stable enough | 
6 | CC(C)(C)/C(O)=C/C(=O)C(F)(F)C(F)(F)C(F)(F)F [H-fod] | highly effective | not stable enough | R1 of major PFPE resonance (−91.4 ppm) ([4]; PFPE nanoemulsion + 2.8 mM H-fod + 0.7 mM FeCl3, by 24 hours): 27.0 s⁻¹; R1 of major PFPE resonance ([4]; PFPE nanoemulsion + 2.8 mM H-fod with GdCl3): 12.8 s⁻¹; R1 of major PFPE resonance (−91.4 ppm) ([4]; PFPE nanoemulsion + 2.8 mM H-fod, before metal addition): 2.3 s⁻¹
7 | C/C(O)=C/C(=O)C(F)(F)C(F)(F)C(F)(F)F [H-hhd] | highly effective | not stable enough | 
8 | C/C(O)=C/C(=O)C(F)(F)C(F)(F)C(F)(F)C(F)(F)C(F)(F)C(F)(F)F [H-tdd] | highly effective | not stable enough | 
9 | O=C(CC(=O)C(F)(F)F)c1cccs1 [H-tta] | highly effective | not stable enough | 
10 | [Cl-].[Cl-].[Cl-].[In+3] [InCl3] |  |  | kobs ([1]; final [M^3+] 2 uM, [ligand] 14 uM, pH ~5 (unbuffered H2O)): >10 min⁻¹; kobs ([1]; final [M^3+] 10 uM, [ligand] 70 uM, pH 7.4 HEPES): 0.0322 min⁻¹
